Measurements reported in ChEMBL document CHEMBL1134876, “Sequence selective recognition of DNA by hairpin conjugates of a racemic seco-cyclopropaneindoline-2-benzofurancarboxamide and polyamides” (Bioorg Med Chem Lett, 2002).

Columns and labels:
[1] = system: P815; experiment: Cytotoxicity tested against P815 (murine mastocytoma) cell line using MTT assay; type: functional, cell-based; details: Mus musculus
[2] = system: L1210; experiment: Cytotoxicity tested against L1210 (murine leukemia) cell line using MTT assay; type: functional, cell-based; details: Mus musculus

Structure (SMILES) | IC50 [1] [µM] | IC50 [2] [µM]
NCCCCNC(=O)c1cc(NC(=O)c2cc(NC(=O)CCCC(=O)Nc3ccc4oc(C(=O)N5CC(CCl)c6ccc(O)cc65)cc4c3)c[nH]2)c[nH]1 (stereo not drawn) | 41 | 28
NCCCCNC(=O)c1cc(NC(=O)c2nc(NC(=O)CCCC(=O)Nc3ccc4oc(C(=O)N5CC(CCl)c6ccc(O)cc65)cc4c3)c[nH]2)c[nH]1 (stereo not drawn) | 77 | 45
NCCCCNC(=O)c1nc(NC(=O)c2nc(NC(=O)CCCC(=O)Nc3ccc4oc(C(=O)N5CC(CCl)c6ccc(O)cc65)cc4c3)c[nH]2)c[nH]1 (stereo not drawn) | 52 | 6.8
NCCCCNC(=O)c1nc(NC(=O)c2cc(NC(=O)CCCC(=O)Nc3ccc4oc(C(=O)N5CC(CCl)c6ccc(O)cc65)cc4c3)c[nH]2)c[nH]1 (stereo not drawn) | 9.1 | 6.7
